Among the data in ChEMBL document CHEMBL1150466, “Studies on the active conformation of NK1 antagonist CGP 49823. Part 1. Synthesis of conformationally restricted analogs” (Bioorg Med Chem Lett, 1997) are IC50 values, retold here.

Chain of Substance-P receptor (P25103 whole entry): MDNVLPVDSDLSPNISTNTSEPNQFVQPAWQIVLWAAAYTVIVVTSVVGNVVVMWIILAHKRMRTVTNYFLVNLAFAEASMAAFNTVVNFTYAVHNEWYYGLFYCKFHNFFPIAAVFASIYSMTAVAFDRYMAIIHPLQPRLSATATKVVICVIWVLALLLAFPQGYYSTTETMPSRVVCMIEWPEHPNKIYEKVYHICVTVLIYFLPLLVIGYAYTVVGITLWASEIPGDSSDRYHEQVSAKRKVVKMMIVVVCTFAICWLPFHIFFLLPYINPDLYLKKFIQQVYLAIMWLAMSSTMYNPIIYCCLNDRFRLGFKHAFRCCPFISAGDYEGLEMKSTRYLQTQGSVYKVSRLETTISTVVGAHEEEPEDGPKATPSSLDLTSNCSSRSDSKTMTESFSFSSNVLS

This experiment has as its target Substance-P receptor (Homo sapiens, UniProt P25103). Nature of the experiment: Tested for the inhibitory potency against Neurokinin 1 NK1 receptor.
One may read the IC50 as the concentration that gives 50% inhibition. `Cc1cc(C)cc(C(=O)N2C3C=C(c4ccccc4)C2CC(NCc2ccnc4ccccc24)C3)c1` (racemic) had an IC50 of 1000 nM.
Consider `Cc1cc(C)cc(C(=O)N2C3CC(NCc4ccnc5ccccc45)CC2C(c2ccccc2)C3)c1` (racemic; form 1), for which the IC50 amounted to 44 nM.
The compound `Cc1cc(C)cc(C(=O)N2C3CC(NCc4ccnc5ccccc45)CC2C(c2ccccc2)C3)c1` (racemic; form 2) registered an IC50 of 640 nM.
